11 molecules from ChEMBL document CHEMBL1201862, “PubChem BioAssay data set” (2004) can be followed below.

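Grown in 96-well plates, cells were treated for 48 hours with each compound at five concentrations. Insufficient inhibition: endpoint recorded as highest concentration tested. At the GI50, growth is halved.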 Active and inactive are the calls of the source. Rule as the data show it: active = GI50 up to about 1.1 µM and inactive = higher.

Test systems include 786-0; BT-549; CAKI-1; CCRF-CEM; HCC 2998; HCT-15; HL-60; HOP-92; KM12; LOX IMVI; MDA-N; NCI-H23; NCI-H460; SK-MEL-28; SNB-19; SW-620; U-251; UACC-257; A549; MDA-MB-231.
What all share (assay): NCI anticancer screen, dose series, 48 h

As to `O=C(c1ccc(Br)cc1)n1c2ccc(Br)cc2c2nc3ccccc3nc21`, the GI50 is > 100 µM (inactive) with 786-0; > 100 µM (inactive) in the assay on BT-549; > 100 µM (inactive) in the assay on CAKI-1; > 100 µM (inactive) in the assay with CCRF-CEM; > 100 µM (inactive) in the assay with HCC 2998; over 100 µM with HCT-15. Moreover, the GI50 was 83.6 µM (inactive) in the assay on HL-60; > 100 µM (inactive) in the assay with HOP-92; > 100 µM (inactive) with KM12; > 100 µM (inactive) in the assay with LOX IMVI; > 100 µM (inactive) in the assay with MDA-N; > 100 µM (inactive) with NCI-H23. The GI50 with NCI-H460, in the assay on SK-MEL-28, in the assay with SNB-19, with SW-620, with U-251 and in the assay on UACC-257 was > 100 µM (inactive) in each case.

As to `CCCCCCCCCCCCCCCCOCC(CC(F)(F)P(=O)(O)O)OC(C)=O` (configuration not stated), the GI50 in the assay with 786-0 was > 50 µM (inactive); in the assay on A549 it was > 50 µM (inactive); with BT-549, > 50 µM (inactive); in the assay with CAKI-1 it was > 50 µM (inactive); with HCC 2998 it was > 50 µM (inactive); with HCT-15, over 50 µM. In addition, the GI50 in the assay on HOP-92, with KM12, with MDA-MB-231, in the assay with MDA-N, with NCI-H23 and in the assay with NCI-H460 was > 50 µM (inactive) in each case. Moreover, the GI50 with SK-MEL-28, with SNB-19, in the assay with SW-620, in the assay with U-251 and in the assay on UACC-257 was > 50 µM (inactive) in each case.

As for `CCOP(=O)(OCC)OC1CC(n2cc(C)c(=O)n(C)c2=O)OC1CO[Si](C)(C)C(C)(C)C` (configuration not stated), the GI50 is > 100 µM (inactive) with 786-0; 55.1 µM (inactive) in the assay on A549; 55.1 µM (inactive) in the assay with BT-549; > 100 µM (inactive) in the assay on CAKI-1; 61.2 µM (inactive) with CCRF-CEM; 62.4 µM (inactive) in the assay with HCC 2998. The GI50 in the assay with HCT-15 is over 100 µM; in the assay on HL-60 it was 18.1 µM (inactive); in the assay with KM12, 75.2 µM (inactive); with LOX IMVI, > 100 µM (inactive); in the assay on MDA-N it was > 100 µM (inactive); in the assay on NCI-H23, > 100 µM (inactive). Moreover, the GI50 was 58.3 µM (inactive) in the assay with NCI-H460; > 100 µM (inactive) in the assay with SK-MEL-28; > 100 µM (inactive) in the assay with SNB-19; > 100 µM (inactive) in the assay with SW-620; > 100 µM (inactive) with U-251; > 100 µM (inactive) with UACC-257.

As for `CC(C)(C)c1cc(C(O)(C(=O)O)C(=O)O)cc(C(C)(C)C)c1O`, the GI50 with 786-0 was > 100 µM (inactive); in the assay on A549 it was > 100 µM (inactive); in the assay on BT-549, > 100 µM (inactive); with CAKI-1, > 100 µM (inactive); in the assay with CCRF-CEM, > 100 µM (inactive); with HCT-15 it was over 100 µM. In addition, the GI50 in the assay on HL-60, in the assay on HOP-92, with KM12, with LOX IMVI, in the assay with MDA-MB-231 and in the assay with MDA-N was > 100 µM (inactive) throughout. Also, the GI50 in the assay with NCI-H23, in the assay on SK-MEL-28, in the assay on SNB-19, in the assay on SW-620, with U-251 and in the assay on UACC-257 was > 100 µM (inactive) in each case.

As for `Cc1ccc(O)c(C2=NNC(c3cccc(Br)c3)C2)c1` (configuration not stated), the GI50 in the assay with 786-0 is > 100 µM (inactive); with A549 it was 44.5 µM (inactive); in the assay on BT-549, > 100 µM (inactive); in the assay on CAKI-1, 27.9 µM (inactive); in the assay with CCRF-CEM, 29.3 µM (inactive); with HCC 2998 it was 60.8 µM (inactive). Also, the GI50 is 11.5 µM with HCT-15; 53.3 µM (inactive) in the assay with HL-60; 15.4 µM (inactive) in the assay with HOP-92; 63.4 µM (inactive) in the assay with KM12; 38.3 µM (inactive) with LOX IMVI; 28.8 µM (inactive) in the assay on MDA-N. The GI50 in the assay with NCI-H23 was 76.6 µM (inactive); in the assay with NCI-H460, 33.9 µM (inactive); with SNB-19, 23 µM (inactive); in the assay on SW-620, 67.1 µM (inactive); in the assay on U-251, 43.7 µM (inactive); in the assay with UACC-257, 48.9 µM (inactive).

On to `CN(C)c1ccc(/C=C2\C[C@H]3[C@@H]4CCc5cc(OCCN6CCCC6)ccc5[C@H]4CC[C@]3(C)C2=O)cc1`, for which the GI50 in the assay on 786-0 is 1.32 µM (inactive); with A549 it was 1.5 µM (inactive); in the assay with BT-549, 3.39 µM (inactive); with CAKI-1, 1.45 µM (inactive); with CCRF-CEM, 1.13 µM (inactive); in the assay with HCC 2998, 1.53 µM (inactive). The GI50 is 1.26 µM in the assay on HCT-15; 1.74 µM (inactive) in the assay on KM12; 1.53 µM (inactive) with MDA-MB-231; 1.85 µM (inactive) with MDA-N; 3.25 µM (inactive) in the assay with NCI-H23; 1.59 µM (inactive) with NCI-H460. Further, the GI50 is 1.53 µM (inactive) in the assay on SK-MEL-28, 1.89 µM (inactive) with SNB-19 and 2.21 µM (inactive) in the assay on UACC-257.

For `Cn1c(=O)n2n(c1=O)C1C(=CC2)C2C=CC1n1c(=O)n(C)c(=O)n12` (configuration not stated), the GI50 was > 100 µM (inactive) in the assay with 786-0; > 100 µM (inactive) in the assay on A549; > 100 µM (inactive) with BT-549; > 100 µM (inactive) in the assay with CAKI-1; > 100 µM (inactive) with CCRF-CEM; over 100 µM in the assay on HCT-15. Further, the GI50 in the assay on HL-60, in the assay with HOP-92, in the assay on KM12, with LOX IMVI, in the assay with MDA-MB-231 and in the assay with MDA-N was > 100 µM (inactive) throughout. Moreover, the GI50 in the assay with NCI-H23, with NCI-H460, in the assay on SK-MEL-28, in the assay on SNB-19, in the assay with SW-620 and with U-251 was > 100 µM (inactive) throughout. In addition, the GI50 in the assay with UACC-257 is > 100 µM (inactive).

As for `COc1cccc(/N=C/c2cc3cc(Br)ccc3nc2Cl)c1`, the GI50 is 2.91 µM (inactive) with 786-0; > 50 µM (inactive) in the assay on A549; 47 µM (inactive) in the assay on BT-549; 7.06 µM (inactive) in the assay on CAKI-1; 4.78 µM (inactive) in the assay with CCRF-CEM; 15 µM (inactive) in the assay with HCC 2998. Moreover, the GI50 is 35.3 µM with HCT-15; 10 µM (inactive) in the assay on HL-60; 30.3 µM (inactive) with HOP-92; 9.75 µM (inactive) in the assay on KM12; 18.9 µM (inactive) in the assay on LOX IMVI; 13.6 µM (inactive) in the assay on MDA-N. In addition, the GI50 with NCI-H23 was 22.1 µM (inactive); with NCI-H460, 13.8 µM (inactive); with SK-MEL-28 it was > 50 µM (inactive); in the assay on SNB-19 it was > 50 µM (inactive); in the assay on SW-620, 11.8 µM (inactive); in the assay with UACC-257, 44.5 µM (inactive).

Regarding `CC#C[C@]1(O)CCC2[C@@H]3CCC4=CC(=O)CCC4=C3[C@@H](c3ccc(N(C)C)cc3)C[C@@]21C` (some centres not stated), the GI50 is 15.2 µM (inactive) in the assay with 786-0; 10.2 µM (inactive) with A549; 16.6 µM (inactive) with BT-549; 5.73 µM (inactive) in the assay with CAKI-1; 9.75 µM (inactive) with CCRF-CEM; 12.3 µM in the assay on HCT-15. Besides, the GI50 with HL-60 is 16 µM (inactive); in the assay on HOP-92 it was 1.43 µM (inactive); with KM12 it was 15.7 µM (inactive); in the assay with LOX IMVI it was 16 µM (inactive); in the assay with MDA-MB-231, 8.79 µM (inactive); in the assay on MDA-N, 11.8 µM (inactive). Also, the GI50 in the assay with NCI-H23 is 21.4 µM (inactive); in the assay with NCI-H460, 9.86 µM (inactive); with SK-MEL-28, 14.4 µM (inactive); in the assay with SNB-19, 35 µM (inactive); in the assay on SW-620 it was 13.3 µM (inactive); in the assay on U-251 it was 12.5 µM (inactive). Besides, in the assay on UACC-257, the GI50 was 13.2 µM (inactive).

For `O=C(O)CNC(=O)c1ccc([As](=O)(O)O)cc1`, the GI50 in the assay on 786-0 is > 100 µM (inactive); with A549, > 100 µM (inactive); in the assay with BT-549, > 100 µM (inactive); with CAKI-1, > 100 µM (inactive); in the assay on CCRF-CEM it was > 100 µM (inactive); in the assay on HCT-15 it was over 100 µM. In addition, the GI50 in the assay on HL-60, in the assay on HOP-92, with KM12, in the assay on LOX IMVI, with MDA-MB-231 and in the assay with MDA-N was > 100 µM (inactive) each time. In addition, the GI50 in the assay on NCI-H23, in the assay with NCI-H460, in the assay on SK-MEL-28, in the assay with SNB-19, in the assay on SW-620 and in the assay on U-251 was > 100 µM (inactive) each time.

Regarding `COc1cc(NS(C)(=O)=O)ccc1Nc1ccnc2ccc3[nH]ccc3c12`, the GI50 in the assay with 786-0 was 14.6 µM (inactive); in the assay with A549, 18.3 µM (inactive); with BT-549, 14.6 µM (inactive); in the assay on CAKI-1, 17.3 µM (inactive); in the assay with CCRF-CEM, 10.4 µM (inactive); with HCT-15, 58.3 µM. Also, the GI50 is 31.5 µM (inactive) in the assay on HL-60; 11.9 µM (inactive) in the assay with HOP-92; 13.8 µM (inactive) in the assay on KM12; 15.2 µM (inactive) with LOX IMVI; 11.6 µM (inactive) with MDA-MB-231; 16.2 µM (inactive) with MDA-N. In addition, the GI50 is 13.7 µM (inactive) in the assay on NCI-H23; 18.2 µM (inactive) in the assay on NCI-H460; 16.6 µM (inactive) in the assay on SK-MEL-28; 15.5 µM (inactive) with SNB-19; 13.3 µM (inactive) in the assay on SW-620; 14 µM (inactive) in the assay with U-251. The GI50 in the assay with UACC-257 was 18.2 µM (inactive).
